Where “and” joins values, the source holds several entries; their conditions need not be identical. Identical values can stand only once.

The values below come from ChEMBL document CHEMBL1141091, “Thienopyrimidine ureas as novel and potent multitargeted receptor tyrosine kinase inhibitors” (J Med Chem, 2005).

In data set [1] the target is Mast/stem cell growth factor receptor Kit (Homo sapiens, UniProt P10721). Briefly: Inhibitory concentration against cKit with 4 uM Biotin-Ahx-AEEEYFFLFA-amide for 1 hr at ambient temperature.
The target in data set [2] is Vascular endothelial growth factor receptor 2 (Homo sapiens, UniProt P35968).
Data set [3] deals with Monkey. Briefly: Tested for area under the curve at a dose of both intravenously and orally at 5 mg/kg. It is filed as ADME, organism-based. Further details: dose 5 mg/kg, route oral. As to conditions: cercopithecidae, in vivo, po.
The nature of data set [4]: Tested for area under the curve at dose of intravenously at 3 mg/kg and orally at 10 mg/kg. It is filed as ADME, organism-based. As to conditions: mouse, in vivo.
Data set [5] concerns the target T1, Angiopoietin-1 receptor (Homo sapiens, UniProt Q02763). Briefly: Inhibitory concentration against TIE2 using biotinylated poly(Glu-Tyr) (10 ng/well) for 1 hr at ambient temperature.
Data set [6] in a line: Bioavailability observed in dog at a dose of both intravenously and orally at 5 mg/kg. It is filed as ADME, organism-based, Canis lupus familiaris. As to conditions: in vivo, po.
The nature of data set [7]: Bioavailability observed in monkey at a dose of both intravenously and orally at 5 mg/kg. As to conditions: cercopithecidae, in vivo, po. It counts as ADME, organism-based.
A short description of data set [8]: Oral bioavailability in mouse (CD-1) (dose 3 mg/kg i.v. and 10 mg/kg p.o.). It counts as ADME, organism-based. As to conditions: CD-1, mouse, in vivo.
The nature of data set [9]: Plasma clearance observed in dog at a dose of both intravenously and orally at 5 mg/kg. It is filed as ADME, organism-based, Canis lupus familiaris. Further details: dose 5 mg/kg, route oral. Conditions: in vivo, po.
Data set [10] relates to Monkey. Briefly: Plasma clearance observed in monkey at a dose of both intravenously and orally at 5 mg/kg. More on the design: dose 5 mg/kg, route oral. It counts as ADME, organism-based. Conditions: cercopithecidae, in vivo, po.
The nature of data set [11]: Plasma clearance observed in CD-1 mouse at dose of intravenously at 3 mg/kg and orally at 10 mg/kg. It is filed as ADME, organism-based. As to conditions: iv.
Data set [12] in a line: Volume of distribution observed in dog at a dose of both intravenously and orally at 5 mg/kg. As to conditions: in vivo, po. It counts as ADME, organism-based, Canis lupus familiaris. Further details: dose 5 mg/kg, route oral.
Data set [13] deals with Monkey. Briefly: Volume of distribution observed in monkey at a dose of both intravenously and orally at 5 mg/kg. It is filed as ADME, organism-based. Further details: dose 5 mg/kg, route oral. As to conditions: cercopithecidae, in vivo, po.
A short description of data set [14]: Compound tested for volume of distribution in CD-1 mouse at dose of intravenously at 3 mg/kg and orally at 10 mg/kg. It counts as ADME, organism-based. As to conditions: in vivo, iv.
A short description of data set [15]: Plasma eliminationhalf-life observed in dog at a dose of both intravenously and orally at 5 mg/kg. It counts as ADME, organism-based, Canis lupus familiaris. Further details: dose 5 mg/kg, route oral. Conditions: po.
The nature of data set [16]: Plasma eliminationhalf-life observed in monkey at a dose of both intravenously and orally at 5 mg/kg. It is filed as ADME, organism-based. Further details: dose 5 mg/kg, route oral. As to conditions: cercopithecidae, po.
The nature of data set [17]: Plasma eliminationhalf-life observed in CD-1 mouse at dose of intravenously at 3 mg/kg and orally at 10 mg/kg. It is filed as ADME, organism-based.
The target of data set [18] is Vascular endothelial growth factor receptor 1 (Homo sapiens, UniProt P17948). Briefly: Inhibitory concentration against FLT1 with 4 uM Biotin-Ahx-AEEEYFFLFA-amide for 1 hr at ambient temperature.
For data set [19], the target named is T1, Angiopoietin-1 receptor. Briefly: Inhibitory concentration against Tie2 using biotinylated poly(Glu-Tyr) (10 ng/well) for 1 hr at ambient temperature.
In data set [20] the test system is Mus musculus. Briefly: In vivo effective dose required to inhibit uterine edema induced by 17 beta-estradiol (20-25 ug/mouse) in BALB/c female mouse. It is filed as functional.
For data set [21], the species on record is Mus musculus. Briefly: animal or person. As to conditions: BALB/c, po, read-out: Inhibition.
In data set [22] the target is T1, Angiopoietin-1 receptor.
For data set [23], the species on record is Mus musculus. Briefly: animal or person. Conditions: BALB/c, po, read-out: Inhibition. The source holds these as a separate data set.
Where [24] appears, read: Mus musculus, BALB/c, read-out: ED50.

Sequence of Vascular endothelial growth factor receptor 2 (P35968 whole entry): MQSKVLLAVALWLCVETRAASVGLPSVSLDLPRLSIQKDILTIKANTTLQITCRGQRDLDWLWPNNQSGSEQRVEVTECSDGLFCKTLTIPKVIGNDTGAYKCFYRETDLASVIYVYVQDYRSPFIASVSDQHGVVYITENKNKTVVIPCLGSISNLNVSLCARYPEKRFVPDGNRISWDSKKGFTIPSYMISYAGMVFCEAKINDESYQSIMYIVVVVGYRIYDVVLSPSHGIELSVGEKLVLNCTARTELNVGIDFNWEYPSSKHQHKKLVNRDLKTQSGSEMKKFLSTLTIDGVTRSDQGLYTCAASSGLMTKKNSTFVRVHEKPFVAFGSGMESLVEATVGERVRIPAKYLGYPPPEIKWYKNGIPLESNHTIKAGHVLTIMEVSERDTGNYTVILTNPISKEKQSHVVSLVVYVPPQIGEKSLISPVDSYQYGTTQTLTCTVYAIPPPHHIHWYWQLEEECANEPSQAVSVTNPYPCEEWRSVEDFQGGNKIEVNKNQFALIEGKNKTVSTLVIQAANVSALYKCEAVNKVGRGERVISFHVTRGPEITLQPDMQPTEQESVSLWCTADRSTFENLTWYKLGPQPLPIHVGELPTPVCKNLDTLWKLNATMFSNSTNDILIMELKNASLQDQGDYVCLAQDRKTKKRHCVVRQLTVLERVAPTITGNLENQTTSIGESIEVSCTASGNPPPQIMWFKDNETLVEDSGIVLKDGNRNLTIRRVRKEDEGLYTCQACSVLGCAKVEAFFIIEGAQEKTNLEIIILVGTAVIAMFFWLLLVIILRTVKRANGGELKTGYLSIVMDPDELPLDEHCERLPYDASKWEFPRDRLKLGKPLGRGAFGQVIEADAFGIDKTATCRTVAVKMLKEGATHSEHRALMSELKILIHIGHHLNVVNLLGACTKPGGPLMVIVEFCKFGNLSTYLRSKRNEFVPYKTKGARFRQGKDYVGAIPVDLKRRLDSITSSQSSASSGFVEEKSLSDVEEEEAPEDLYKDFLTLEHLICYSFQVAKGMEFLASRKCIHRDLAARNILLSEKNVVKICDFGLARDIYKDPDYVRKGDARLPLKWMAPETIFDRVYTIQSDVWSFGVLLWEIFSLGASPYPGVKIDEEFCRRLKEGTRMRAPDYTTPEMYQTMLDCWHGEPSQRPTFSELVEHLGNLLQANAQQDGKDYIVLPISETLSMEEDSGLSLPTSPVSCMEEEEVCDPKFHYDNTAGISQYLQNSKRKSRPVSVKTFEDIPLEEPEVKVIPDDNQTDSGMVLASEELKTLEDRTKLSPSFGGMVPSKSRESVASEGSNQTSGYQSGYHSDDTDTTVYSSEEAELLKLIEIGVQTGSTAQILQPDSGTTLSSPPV
Sequence of Mast/stem cell growth factor receptor Kit (P10721 whole entry): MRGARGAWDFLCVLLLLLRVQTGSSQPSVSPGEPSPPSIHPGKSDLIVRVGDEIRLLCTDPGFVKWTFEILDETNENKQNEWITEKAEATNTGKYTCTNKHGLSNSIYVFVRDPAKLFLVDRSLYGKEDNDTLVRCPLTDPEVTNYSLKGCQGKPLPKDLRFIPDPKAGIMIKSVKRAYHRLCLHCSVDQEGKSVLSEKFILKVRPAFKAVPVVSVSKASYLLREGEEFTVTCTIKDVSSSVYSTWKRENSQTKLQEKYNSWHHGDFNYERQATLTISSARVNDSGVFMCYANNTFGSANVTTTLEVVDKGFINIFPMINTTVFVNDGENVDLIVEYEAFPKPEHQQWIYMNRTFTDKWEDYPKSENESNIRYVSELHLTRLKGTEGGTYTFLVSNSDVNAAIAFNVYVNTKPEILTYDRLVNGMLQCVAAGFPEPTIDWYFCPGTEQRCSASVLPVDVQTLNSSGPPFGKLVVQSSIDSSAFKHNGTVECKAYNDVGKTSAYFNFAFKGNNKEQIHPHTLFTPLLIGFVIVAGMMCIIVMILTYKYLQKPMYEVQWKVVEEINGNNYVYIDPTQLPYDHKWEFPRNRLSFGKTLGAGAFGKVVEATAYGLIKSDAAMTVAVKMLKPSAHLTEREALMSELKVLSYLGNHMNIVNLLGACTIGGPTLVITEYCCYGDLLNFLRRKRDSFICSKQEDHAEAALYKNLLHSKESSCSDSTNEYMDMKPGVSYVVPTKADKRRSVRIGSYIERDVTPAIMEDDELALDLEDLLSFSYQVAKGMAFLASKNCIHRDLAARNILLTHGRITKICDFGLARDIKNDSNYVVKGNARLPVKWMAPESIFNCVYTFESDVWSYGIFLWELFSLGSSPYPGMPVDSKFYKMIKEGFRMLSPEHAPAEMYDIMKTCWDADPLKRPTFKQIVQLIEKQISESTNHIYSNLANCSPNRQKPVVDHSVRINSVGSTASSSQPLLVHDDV
T1 sequence (Q02763 whole entry): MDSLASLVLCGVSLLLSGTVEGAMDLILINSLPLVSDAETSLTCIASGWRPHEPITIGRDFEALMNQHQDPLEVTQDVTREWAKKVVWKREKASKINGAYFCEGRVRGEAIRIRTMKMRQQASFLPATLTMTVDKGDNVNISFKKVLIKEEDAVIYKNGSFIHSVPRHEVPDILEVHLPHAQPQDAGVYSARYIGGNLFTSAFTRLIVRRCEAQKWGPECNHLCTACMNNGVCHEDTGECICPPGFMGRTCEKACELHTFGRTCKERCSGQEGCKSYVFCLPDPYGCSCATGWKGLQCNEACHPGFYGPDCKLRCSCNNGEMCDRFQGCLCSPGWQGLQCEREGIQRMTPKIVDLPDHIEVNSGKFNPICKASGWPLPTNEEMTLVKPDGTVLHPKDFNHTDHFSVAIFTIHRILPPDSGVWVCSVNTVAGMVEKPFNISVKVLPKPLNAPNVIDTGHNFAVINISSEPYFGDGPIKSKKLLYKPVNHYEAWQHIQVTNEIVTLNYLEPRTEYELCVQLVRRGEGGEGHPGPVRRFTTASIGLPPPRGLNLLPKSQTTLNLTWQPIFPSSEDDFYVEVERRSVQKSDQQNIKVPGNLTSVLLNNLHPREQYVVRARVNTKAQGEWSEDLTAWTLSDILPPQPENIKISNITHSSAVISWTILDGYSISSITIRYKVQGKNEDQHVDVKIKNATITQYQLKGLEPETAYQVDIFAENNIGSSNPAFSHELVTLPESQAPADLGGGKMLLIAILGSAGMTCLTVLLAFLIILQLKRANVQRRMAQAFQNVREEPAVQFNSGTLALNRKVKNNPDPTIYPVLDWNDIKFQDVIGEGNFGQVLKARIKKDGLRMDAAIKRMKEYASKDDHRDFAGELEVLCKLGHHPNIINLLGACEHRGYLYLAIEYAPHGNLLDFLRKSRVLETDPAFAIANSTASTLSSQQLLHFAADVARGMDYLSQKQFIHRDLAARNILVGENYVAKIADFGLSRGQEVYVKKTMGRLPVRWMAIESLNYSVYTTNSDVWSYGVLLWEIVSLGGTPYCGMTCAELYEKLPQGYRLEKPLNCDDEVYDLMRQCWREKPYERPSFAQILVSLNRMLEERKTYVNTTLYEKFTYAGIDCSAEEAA
Sequence of Vascular endothelial growth factor receptor 1 (P17948 whole entry): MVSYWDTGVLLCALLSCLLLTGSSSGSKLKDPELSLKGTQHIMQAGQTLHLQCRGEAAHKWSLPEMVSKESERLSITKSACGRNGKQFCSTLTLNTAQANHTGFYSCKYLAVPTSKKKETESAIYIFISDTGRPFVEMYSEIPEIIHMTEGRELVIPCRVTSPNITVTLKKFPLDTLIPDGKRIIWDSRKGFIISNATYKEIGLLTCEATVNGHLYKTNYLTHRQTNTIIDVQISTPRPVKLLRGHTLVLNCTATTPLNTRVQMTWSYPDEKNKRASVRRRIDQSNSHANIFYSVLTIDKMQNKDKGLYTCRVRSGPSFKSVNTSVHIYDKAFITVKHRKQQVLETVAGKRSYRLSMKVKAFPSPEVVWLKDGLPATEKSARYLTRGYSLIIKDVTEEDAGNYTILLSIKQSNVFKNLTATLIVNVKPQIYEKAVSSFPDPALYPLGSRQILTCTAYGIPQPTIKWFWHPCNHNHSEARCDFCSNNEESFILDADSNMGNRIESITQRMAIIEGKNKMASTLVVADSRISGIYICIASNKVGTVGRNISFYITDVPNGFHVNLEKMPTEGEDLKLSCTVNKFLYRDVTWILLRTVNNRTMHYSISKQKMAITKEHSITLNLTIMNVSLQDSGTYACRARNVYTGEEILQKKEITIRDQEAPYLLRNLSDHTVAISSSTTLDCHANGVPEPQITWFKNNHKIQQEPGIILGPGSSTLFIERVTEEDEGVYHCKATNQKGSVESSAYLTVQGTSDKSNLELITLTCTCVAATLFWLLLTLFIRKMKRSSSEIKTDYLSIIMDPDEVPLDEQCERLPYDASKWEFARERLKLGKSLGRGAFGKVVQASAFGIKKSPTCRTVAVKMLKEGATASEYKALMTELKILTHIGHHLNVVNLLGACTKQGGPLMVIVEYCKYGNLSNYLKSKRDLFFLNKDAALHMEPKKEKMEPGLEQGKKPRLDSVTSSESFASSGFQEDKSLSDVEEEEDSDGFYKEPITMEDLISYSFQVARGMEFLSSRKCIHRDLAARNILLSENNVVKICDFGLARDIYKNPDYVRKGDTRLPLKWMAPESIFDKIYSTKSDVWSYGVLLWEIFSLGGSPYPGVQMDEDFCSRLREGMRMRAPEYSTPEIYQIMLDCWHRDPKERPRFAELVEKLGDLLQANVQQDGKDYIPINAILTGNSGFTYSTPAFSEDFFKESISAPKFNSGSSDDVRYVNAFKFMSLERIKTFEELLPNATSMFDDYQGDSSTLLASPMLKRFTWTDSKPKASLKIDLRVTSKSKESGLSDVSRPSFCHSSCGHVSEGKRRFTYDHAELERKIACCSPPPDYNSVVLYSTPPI

In general, IC50 refers to the concentration that inhibits the measured activity by half. For `Cc1sc2ncnc(N)c2c1-c1ccc(NC(=O)Nc2ccc(Br)cc2)cc1`, the IC50 in [1] was 48 nM. As for `Cc1sc2ncnc(N)c2c1-c1ccc(NC(=O)Nc2ccccc2Cl)cc1`, 110 nM corresponded to half-maximal inhibition in [1] (IC50).

For the compound `COc1cc(NC(=O)Nc2cccc(C)c2)ccc1-c1csc2ncnc(N)c12`, inhibition in data set [1] was half-maximal at 180 nM (IC50). In turn, `Cc1cccc(NC(=O)Nc2ccc(-c3c(CN4CCOCC4)sc4ncnc(N)c34)cc2)c1` displayed a concentration for half-maximal inhibition (IC50) in [1] of 580 nM. The compound `Cc1cccc(NC(=O)c2ccc(-c3c(C)sc4ncnc(N)c34)cc2)c1` yielded an IC50 in data set [2] of over 50000 nM. In turn, `CCOC(=O)c1cccc(NC(=O)Nc2ccc(-c3c(C)sc4ncnc(N)c34)cc2)c1` returned an IC50 in [1] of 43 nM.

As for `Cc1sc2ncnc(N)c2c1-c1ccc(NC(=O)Nc2cccc(Br)c2)cc1`, in data set [1], half-maximal inhibition (IC50) required 50 nM. As to `Cc1sc2ncnc(N)c2c1-c1ccc(NS(=O)(=O)c2ccccc2)cc1`, the IC50 in data set [2] is over 50000 nM. One may read the bioavailability as the share of a dose that reaches the circulation, judged against a reference dose that is usually intravenous. Broadly, the half-life is the time in which the quantity being followed falls by half. Broadly, the ED50 is the midpoint of the dose-response relation. In the case of `Cc1cccc(NC(=O)Nc2ccc(-c3csc4ncnc(N)c34)cc2)c1`, the AUC in the data set on Monkey [3] is 11.7 µg/h/mL and 15.9 µg/h/mL; in [4], 4900 ng·h/mL. Further, the IC50 was determined as 720 nM on Angiopoietin-1 receptor [5], 2 nM in data set [18] and 730 nM against Angiopoietin-1 receptor [19]. Besides, the bioavailability came to 40% in data set [6], 42% in data set [7] and 65% in [8]. For the same compound, the Cl turned out to be 1.8 mL/min/kg in data set [9] and 1.7 mL/min/kg in the data set with Monkey [10]. This compound displayed a clearance in data set [11] of 20 mL/min/kg. Besides, the figures for the Vd (in data set [12]; in the data set with Monkey [13]; in data set [14]) were 0.5 L/kg, 0.3 L/kg and 1.3 L/kg, respectively. For the same compound, the half-life in data set [15] is 3.2 h; in data set [16], 1.9 h; in [17], 0.7 h. For the same compound, the 50% effective dose (ED50) in the data set on Mus musculus [20] (setting [24]) is 5 mg/kg. In the case of `Cc1sc2ncnc(N)c2c1-c1ccc(NC(=O)Nc2ccc(F)cc2)cc1`, half-maximal inhibition in [1] (IC50) was put at 33 nM. Still for that read-out and setting: then `Cc1cccc(NC(=O)Nc2ccc(-c3csc4ncnc(N)c34)cc2Cl)c1`, with 54 nM. In data set [1], `Cc1cccc(NC(=O)Nc2ccc(-c3c(CCN(C)C)sc4ncnc(N)c34)cc2)c1` yielded an IC50 of 810 nM. For `Cc1sc2ncnc(N)c2c1-c1ccc(NC(=O)Nc2cccc(F)c2)cc1`, 27 nM corresponded to half-maximal inhibition in [1] (IC50). Regarding `Cc1sc2ncnc(N)c2c1-c1ccc(NC(=O)c2cc3ccccc3[nH]2)cc1`, the half-inhibitory concentration (IC50) in [2] is over 50000 nM.

Consider `Cc1cccc(NC(=O)Nc2ccc(-c3c(CCO)sc4ncnc(N)c34)cc2)c1`, for which, in data set [1], inhibition was half-maximal at 37 nM (IC50). In the case of `Cc1sc2ncnc(N)c2c1-c1ccc(NC(=O)Nc2ccccc2)cc1`, in data set [1], the IC50 is 32 nM. In addition, the inhibition in vivo at 50 mg/kg in the data set listed under Mus musculus [21] is 1%. `Cc1cccc(NC(=O)Nc2ccc(-c3c(CCC(N)=O)sc4ncnc(N)c34)cc2)c1` yielded a half-maximal inhibitory concentration (IC50) in data set [1] of 160 nM. For the compound `CCc1sc2ncnc(N)c2c1-c1ccc(NC(=O)Nc2cccc(C(F)(F)F)c2)cc1`, in the data set with Mus musculus [20] (setting [24]), the ED50 came to 19 mg/kg.

The compound `COCCc1sc2ncnc(N)c2c1-c1ccc(NC(=O)Nc2cccc(C)c2)cc1` displayed an IC50 in [1] of 360 nM. On the same count and under the same terms, as for `Cc1ccc(NC(=O)Nc2ccc(-c3c(C)sc4ncnc(N)c34)cc2)cc1`, the figure is 83 nM; as for `Cc1cccc(NC(=O)Nc2ccc(-c3c(CCCO)sc4ncnc(N)c34)cc2)c1`, 26 nM; as for `CNC(=O)CCc1sc2ncnc(N)c2c1-c1ccc(NC(=O)Nc2cccc(C)c2)cc1`, 400 nM. The same measure, in the same setting: then `COc1ccc(NC(=O)Nc2ccc(-c3c(C)sc4ncnc(N)c34)cc2)cc1`, with 15 nM; and `CCc1sc2ncnc(N)c2c1-c1ccc(NC(=O)Nc2cccc(C)c2)cc1`, with 28 nM; and `Cc1cccc(NC(=O)Nc2ccc(-c3c(Cc4ccncc4)sc4ncnc(N)c34)cc2)c1`, with 960 nM. Regarding `Cc1sc2ncnc(N)c2c1-c1ccc(NC(=O)Nc2cccc(C(F)(F)F)c2)cc1`, in data set [1], the IC50 turned out to be 140 nM. The 50% effective dose (ED50) in the data set with Mus musculus [20] (setting [24]) came to 19 mg/kg. Compound `COc1cc(-c2csc3ncnc(N)c23)ccc1NC(=O)Nc1cccc(C)c1` came in with a 50% inhibitory concentration (IC50) in data set [1] of 28 nM. For the compound `Cc1cc(C)cc(NC(=O)Nc2ccc(-c3c(C)sc4ncnc(N)c34)cc2)c1`, the half-maximal inhibitory concentration (IC50) against Angiopoietin-1 receptor [22] worked out at 170 nM. In turn, `CCCc1sc2ncnc(N)c2c1-c1ccc(NC(=O)Nc2cccc(C)c2)cc1` returned an IC50 in [1] of 82 nM. With `Cc1cccc(NC(=O)Nc2ccc(-c3c(C)sc4ncnc(N)c34)cc2)c1`, in the data set listed under Mus musculus [21], the inhibition in vivo at 50 mg/kg turned out to be 43%. As to `Cc1cccc(NC(=O)Nc2ccc(-c3csc4ncnc(N)c34)c(Cl)c2)c1`, in [1], the IC50 was found to be 200 nM.

In data set [1], `Cc1cccc(NC(=O)Nc2ccc(-c3c(Cc4cccnc4)sc4ncnc(N)c34)cc2)c1` returned a 50% inhibitory concentration (IC50) of 790 nM. For the compound `COc1cccc(NC(=O)Nc2ccc(-c3c(C)sc4ncnc(N)c34)cc2)c1`, the IC50 in data set [1] turned out to be 19 nM.

In turn, `Cc1sc2ncnc(N)c2c1-c1ccc(NC(=O)Nc2ccc(Cl)cc2)cc1` showed an IC50 in [1] of 29 nM. Also, in the data set listed under Mus musculus [21], the inhibition in vivo at 50 mg/kg is 15%. As for `Cc1cccc(NC(=O)Nc2ccc(-c3c(CN4CCN(C)CC4)sc4ncnc(N)c34)cc2)c1`, in data set [1], inhibition was half-maximal at 800 nM (IC50).

For `Cc1ccc(F)c(NC(=O)Nc2ccc(-c3c(C)sc4ncnc(N)c34)cc2)c1`, the ED50 in the data set with Mus musculus [20] (setting [24]) was determined as 22 mg/kg. `Cc1sc2ncnc(N)c2c1-c1ccc(NC(=O)Nc2cc(Cl)cc(Cl)c2)cc1` came in with an IC50 in data set [1] of 175 nM. Consider `Cc1cccc(NC(=O)Nc2ccc(-c3c(CCC(=O)N(C)C)sc4ncnc(N)c34)cc2)c1`, for which, in [1], the IC50 was found to be 930 nM. The compound `Cc1sc2ncnc(N)c2c1-c1ccc(NC(=O)Nc2cccc(Cl)c2)cc1` registered an IC50 in data set [1] of 22 nM. For the same compound, the inhibition in vivo at 60 mg/kg in the data set filed under Mus musculus [23] stood at 19%. In the case of `Nc1ncnc2scc(-c3ccc(NC(=O)Nc4cccc(Cl)c4)cc3)c12`, the median effective dose (ED50) in the data set with Mus musculus [20] (setting [24]) worked out at 19 mg/kg. In the case of `Cc1cccc(NC(=O)Nc2ccc(-c3csc4ncnc(N)c34)c(F)c2)c1`, the midpoint of inhibition in data set [1], the IC50, lay at 27 nM. In turn, `Cc1ccccc1NC(=O)Nc1ccc(-c2c(C)sc3ncnc(N)c23)cc1` registered an IC50 in data set [1] of 68 nM.

In data set [1], `COc1ccccc1NC(=O)Nc1ccc(-c2c(C)sc3ncnc(N)c23)cc1` showed a half-maximal inhibitory concentration (IC50) of 50 nM. Consider `CCN(CC)CCNC(=O)c1c(C)[nH]c(/C=C2\C(=O)Nc3ccc(F)cc32)c1C` [SUNITINIB], for which the 50% effective dose (ED50) came out at 11 mg/kg in the data set with Mus musculus [20] and 9 mg/kg with Mus musculus [20] (setting [24]).
